Experimental data reported in patent US6737383B1, “Herbicidal oxadiazolidines” (priority 1999, dated 2004).

Experiments:
purple nutsedge = test: Test B pre/postemergence purple nutsedge; assay type: in vivo, Cyperus rotundus
Method in brief: (§1)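 Test chemicals in a non-phytotoxic solvent mixture with surfactant were sprayed preemergence onto planted seeds and postemergence onto plants 2 to 18 cm tall (1- to 4-leaf stage). After twelve to sixteen days in a greenhouse, injury was visually rated against untreated controls from 0 (no effect) to 10 (complete control).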

surinam grass = test: Test B pre/postemergence surinam grass; assay type: in vivo, Brachiaria decumbens
Method in brief: as §1

bamyardgrass = test: Test B flood test barnyardgrass; assay type: in vivo, Echinochloa crus-galli
Method in brief: (§2)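 Flood test on plants grown to the 2-leaf stage; treated plants kept in greenhouse twelve to sixteen days, then visually rated against controls on a 0 (no effect) to 10 (complete control) scale.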

morningglory = test: Test B pre/postemergence morningglory; assay type: in vivo, Ipomoea hederacea
Method in brief: as §1

pigweed = test: Test B pre/postemergence pigweed; assay type: in vivo, Amaranthus retroflexus
Method in brief: as §1

wheat = test: Test B pre/postemergence wheat; assay type: in vivo, Triticum aestivum; details: for Plant response rating, Wheat: Rate 250 g/ha
Method in brief: as §1

cocklebur = test: Test B pre/postemergence cocklebur; assay type: in vivo, Xanthium strumarium
Method in brief: as §1

rice = test: Test B flood test rice; assay type: in vivo, Oryza sativa
Method in brief: as §2

soybean = test: Test B pre/postemergence soybean; assay type: in vivo, Glycine max
Method in brief: as §1

smallflower flatsedge = test: Test B flood test smallflower flatsedge; assay type: in vivo, Cyperus difformis
Method in brief: as §2

wild oat = test: Test B pre/postemergence wild oat; assay type: in vivo, Avena fatua; details: for Plant response rating, Wild oats: Rate 250 g/ha
Method in brief: as §1

crabgrass = test: Test B pre/postemergence crabgrass; assay type: in vivo, Digitaria sanguinalis
Method in brief: as §1

giant foxtail = test: Test B pre/postemergence giant foxtail; assay type: in vivo, Setaria faberii
Method in brief: as §1

velvetleaf = test: Test B pre/postemergence velvetleaf; assay type: in vivo, Abutilon theophrasti; details: for Plant response rating, Velvetleaf: Rate 250 g/ha
Method in brief: as §1

blackgrass = test: Test B pre/postemergence blackgrass; assay type: in vivo, Alopecurus myosuroides
Method in brief: as §1

bedstraw = test: Test B pre/postemergence bedstraw; assay type: in vivo, Galium aparine; details: Preemergence
Method in brief: as §1

[1] = Postemergence, Rate 62 g/ha, scale 0 to 10, 0 is no effect, 10 is complete control
[2] = Postemergence, Rate 125 g/ha, scale of 0 to 10 where 0 is no effect and 10 is complete control
[3] = Postemergence, Rate 250 g/ha, scale 0 to 10, 0 no effect, 10 complete control
[4] = Preemergence, Rate 62 g/ha, scale 0 to 10 (0 no effect, 10 complete control)
[5] = Preemergence, Rate 125 g/ha, scale 0 to 10 (0 no effect, 10 complete control)
[6] = Preemergence, Rate 250 g/ha, scale of 0 to 10 where 0 is no effect and 10 is complete control
[7] = Preemergence, Rate 500 g/ha, scale 0 (no effect) to 10 (complete control)
[8] = Rate 500 g/ha, Postemergence, scale 0 to 10, 0 no effect, 10 complete control
[9] = Rate 250 g/ha, headed Pre-emergence (flood test species), scale 0 to 10 (0 no effect, 10 complete control)
[10] = Rate 500 g/ha, headed Pre-emergence (flood test species), scale 0 to 10 (0 no effect, 10 complete control)
[11] = Rate 500 g/ha, listed under Postemergence (flood test species), scale 0 to 10, 0 no effect, 10 complete control
[12] = Rate 1000 g/ha, Pre-emergence (as headed), scale 0 to 10
[13] = Rate 250 g/ha, Postemergence, scale 0 to 10, 0 is no effect, 10 is complete control
[14] = Preemergence, Rate 125 g/ha, 0 is no effect, 10 is complete control
[15] = Preemergence, scale of 0 to 10 where 0 is no effect and 10 is complete control
[16] = Postemergence, scale 0 to 10, 0 is no effect, 10 is complete control
[17] = Postemergence (flood test species), Rate 125 g/ha, scale of 0 to 10 where 0 is no effect and 10 is complete control
[18] = Rate 250 g/ha, Postemergence (flood test), scale 0 to 10, 0 is no effect, 10 is complete control
[19] = Rate 2000 g/ha, Pre-emergence (as headed), scale 0 to 10

CC(C)N(C(=O)n1oc(=O)n(Cc2ccccc2)c1=O)c1ccccc1 [Compound 94]
3: Cocklebur plant response rating (cocklebur; [8]) | Wild oats plant response rating (0 to 10 scale) (wild oat; [14]) | Crabgrass plant response rating (crabgrass; [1]) | Crabgrass plant response rating (crabgrass; [2]) | Crabgrass plant response rating (crabgrass; [4]) | Plant response rating, Crabgrass (crabgrass; [5]) | Velvetleaf plant response rating (velvetleaf; [7]) | Blackgrass plant response rating (blackgrass; [3])
5: B. signalgrass plant response rating (surinam grass; [7]) | Soybean plant response rating (soybean; [1]) | Soybean plant response rating (soybean; [2]) | Plant response rating, Soybean (soybean; [13]) | Soybean plant response rating (soybean; [8]) | Giant foxtail plant response rating (giant foxtail; [3])
4: Redroot pigweed plant response rating (pigweed; [7]) | Redroot pigweed plant response rating (pigweed; [8]) | Plant response rating, Wild oats (wild oat; [15]) | Plant response rating, Velvetleaf (velvetleaf; [16])
1: Plant response rating, B. signalgrass (surinam grass; [5]) | Plant response rating, B. signalgrass (surinam grass; [6]) | Cocklebur plant response rating (cocklebur; [2]) | Cocklebur plant response rating (cocklebur; [3]) | Wild oats plant response rating (wild oat; [8]) | Plant response rating, Blackgrass (blackgrass; [5])
6: Wild oats plant response rating (wild oat; [7]) | Plant response rating, Crabgrass (crabgrass; [6]) | Velvetleaf plant response rating (velvetleaf; [8]) | Blackgrass plant response rating (blackgrass; [8])
0: Nutsedge plant response rating (purple nutsedge; [1]) | Nutsedge plant response rating (purple nutsedge; [2]) | Nutsedge plant response rating (purple nutsedge; [3]) | Nutsedge plant response rating (purple nutsedge; [4]) | Plant response rating, Nutsedge (purple nutsedge; [5]) | Plant response rating, Nutsedge (purple nutsedge; [6]) | Nutsedge plant response rating (purple nutsedge; [7]) | Nutsedge plant response rating (purple nutsedge; [8]) | B. signalgrass plant response rating (surinam grass; [1]) | B. signalgrass plant response rating (surinam grass; [3]) | B. signalgrass plant response rating (surinam grass; [4]) | B. signalgrass plant response rating (surinam grass; Rate 125 g/ha, Postemergence, scale 0 to 10, 0 no effect, 10 complete control) | Barnyardgrass plant response rating (bamyardgrass; [1]) | Barnyardgrass plant response rating (bamyardgrass; Rate 125 g/ha, Postemergence section (flood test species), scale 0 to 10, 0 no effect, 10 complete control) | Barnyardgrass plant response rating (bamyardgrass; [9]) | Plant response rating, Barnyardgrass (bamyardgrass; [10]) | Barnyardgrass plant response rating (bamyardgrass; [12]) | Barnyardgrass plant response rating (bamyardgrass; flood test, listed under Postemergence, Rate 250 g/ha, scale 0 to 10, 0 no effect, 10 complete control) | Morningglory plant response rating (morningglory; [4]) | Plant response rating, Morningglory (morningglory; [5]) | Plant response rating, Morningglory (morningglory; [6]) | Morningglory plant response rating (morningglory; [7]) | Redroot pigweed plant response rating (pigweed; [1]) | Redroot pigweed plant response rating (pigweed; [2]) | Redroot pigweed plant response rating (pigweed; [4]) | Plant response rating, Redroot pigweed (pigweed; [5]) | Plant response rating, Redroot pigweed (pigweed; [6]) | Wheat plant response rating (wheat; [1]) | Wheat plant response rating (wheat; [2]) | Wheat plant response rating (wheat; [4]) | Wheat plant response rating (0 to 10 scale) (wheat; [14]) | Plant response rating, Wheat (wheat; [15]) | Wheat plant response rating (wheat; [7]) | Plant response rating, Wheat (wheat; [16]) | Wheat plant response rating (wheat; [8]) | Cocklebur plant response rating (cocklebur; [1]) | Cocklebur plant response rating (cocklebur; [4]) | Plant response rating, Cocklebur (cocklebur; [5]) | Plant response rating, Cocklebur (cocklebur; [6]) | Rice plant response rating (rice; [17]) | Rice plant response rating (rice; [1]) | Plant response rating, Rice (rice; [18]) | Rice plant response rating (rice; [9]) | Plant response rating, Rice (rice; [10]) | Rice plant response rating (rice; [11]) | Rice plant response rating (rice; [12]) | Rice plant response rating (rice; [19]) | Soybean plant response rating (soybean; [4]) | Plant response rating, Soybean (soybean; [5]) | Plant response rating, Soybean (soybean; [6]) | Soybean plant response rating (soybean; [7]) | S. Flatsedge plant response rating (smallflower flatsedge; [17]) | S. Flatsedge plant response rating (smallflower flatsedge; [1]) | S. Flatsedge plant response rating (smallflower flatsedge; Pre-emergence, Rate 1000 g/ha, scale 0 to 10 (0 no effect, 10 complete control)) | Plant response rating, S. Flatsedge (smallflower flatsedge; [18]) | S. Flatsedge plant response rating (smallflower flatsedge; [9]) | Plant response rating, S. Flatsedge (smallflower flatsedge; [10]) | Wild oats plant response rating (wild oat; [1]) | Wild oats plant response rating (wild oat; [2]) | Wild oats plant response rating (wild oat; [4]) | Plant response rating, Wild oats (wild oat; [16]) | Giant foxtail plant response rating (giant foxtail; [1]) | Giant foxtail plant response rating (giant foxtail; [2]) | Velvetleaf plant response rating (velvetleaf; [1]) | Velvetleaf plant response rating (velvetleaf; [2]) | Velvetleaf plant response rating (velvetleaf; [4]) | Velvetleaf plant response rating (0 to 10 scale) (velvetleaf; [14]) | Plant response rating, Velvetleaf (velvetleaf; [15]) | Blackgrass plant response rating (blackgrass; [1]) | Blackgrass plant response rating (blackgrass; [2]) | Blackgrass plant response rating (blackgrass; [4]) | Bedstraw plant response rating (bedstraw; Rate 62 g/ha, scale 0 to 10 (0 no effect, 10 complete control)) | Plant response rating, Bedstraw (bedstraw; Rate 125 g/ha, scale 0 to 10 (0 no effect, 10 complete control)) | Plant response rating, Bedstraw (bedstraw; Rate 250 g/ha, scale of 0 to 10 where 0 is no effect and 10 is complete control) | Bedstraw plant response rating (bedstraw; Rate 500 g/ha, scale 0 (no effect) to 10 (complete control))
7: Barnyardgrass plant response rating (bamyardgrass; Rate 2000 g/ha, Pre-emergence (as headed), scale 0 to 10, 0 no effect, 10 complete control)
2: B. signalgrass plant response rating (surinam grass; Rate 500 g/ha, Postemergence, scale of 0 to 10 where 0 is no effect and 10 is complete control) | Plant response rating, Redroot pigweed (pigweed; [13])
8: S. Flatsedge plant response rating (smallflower flatsedge; [19]) | Crabgrass plant response rating (crabgrass; [3]) | Giant foxtail plant response rating (giant foxtail; [4]) | Giant foxtail plant response rating (giant foxtail; [8]) | Plant response rating, Blackgrass (blackgrass; [6])
10: Morningglory plant response rating (morningglory; [1]) | Morningglory plant response rating (morningglory; [2]) | Morningglory plant response rating (morningglory; [3]) | Morningglory plant response rating (morningglory; [8]) | Crabgrass plant response rating (crabgrass; [7]) | Giant foxtail plant response rating (giant foxtail; [7])
9: Barnyardgrass plant response rating (bamyardgrass; [11]) | S. Flatsedge plant response rating (smallflower flatsedge; [11]) | Crabgrass plant response rating (crabgrass; [8]) | Plant response rating, Giant foxtail (giant foxtail; [5]) | Plant response rating, Giant foxtail (giant foxtail; [6]) | Blackgrass plant response rating (blackgrass; [7])
